Laboratory results taken from PMC12775434, “Ultra-large virtual screening unveils potent agonists of the neuromodulatory orphan receptor GPR139” (Nature Communications, 2025).
Values joined by “and” are separate entries in the source; they are usually repeats but may differ in a detail not shown here. Identical values can stand only once.

Experiments:
GPR139 [1] = target: T1, GPR139 (Homo sapiens, UniProt Q6DWJ6); test: Ca2+ mobilization assay, antagonist mode (EC80 800 nM Lundbeck Cmp 1a after 20 min preincubation), GPR139-CHOk1; format: cell-based; conditions: individual replicates (Supplementary Figure 1)
T1 sequence (Q6DWJ6 1-353): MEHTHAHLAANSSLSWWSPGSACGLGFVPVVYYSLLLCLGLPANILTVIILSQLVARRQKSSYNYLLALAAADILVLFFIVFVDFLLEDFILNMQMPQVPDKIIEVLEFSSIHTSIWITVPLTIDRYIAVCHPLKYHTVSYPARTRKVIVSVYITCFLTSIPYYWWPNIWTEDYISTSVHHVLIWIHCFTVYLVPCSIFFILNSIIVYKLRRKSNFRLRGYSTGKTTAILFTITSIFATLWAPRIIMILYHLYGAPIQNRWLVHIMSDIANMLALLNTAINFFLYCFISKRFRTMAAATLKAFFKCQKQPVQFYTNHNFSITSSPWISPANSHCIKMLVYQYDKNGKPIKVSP
Method: (§1) 30,000 GPR139- or M1R-CHOk1 cells/well were seeded in black clear bottom tissue culture treated 96-well plates (Greiner #655090) and grown for 20–24 h. Cells were washed with HEPES buffer (Hank’s Balanced Salt Solution (HBBS) supplemented with 20 mM HEPES, 1 mM MgCl2, and 1 mM CaCl2; pH 7.4). Cells were loaded with 50 µL of 2 µM Fluo-4 AM dye (ThermoFisher #F14202) in HEPES buffer supplemented with 2.5 mM probenecid and 0.01% Pluronic F-68 (ThermoFisher #24040032) for 1 h at 37 °C. Cells were washed with HEPES buffer. 50 µL HEPES buffer supplemented with 2.5 mM probenecid was added, and the cells were incubated for 10 min at 37 °C before measurement. 50 µL test compounds diluted in HEPES buffer from DMSO stocks (final DMSO concentration of maximally 0.3%) were added automatically after baseline measurements. The intracellular calcium mobilization was measured on a FlexStation 3 Multimode Microplate Reader (Molecular Devices) at 37 °C with filters for excitation of 485 nm and emission of 525 nm.
Our primary compound screening protocol consisted of two subsequent steps that allowed to screen for agonists and antagonists simultaneously. In the first step, the screening compounds were applied at 10 µM to test for agonist activity (agonist mode). Following 20 min incubation with the compounds added in the first step, in the second step, an EC80 concentration (800 nM) of the reference agonist Lundbeck Cmp 1a was applied to test for antagonist activity (antagonist mode). In the agonist mode (first step) response is seen only with compounds having agonist activity (Cmp 1a), but not with non-receptor-binding compounds (Vehicle) or antagonists (NCRW0105-E06) (Supplementary Fig. 14). […] No antagonist compounds were identified in this study.

GPR139 [2] = target: T1, GPR139; test: Ca2+ mobilization assay, agonist mode, stable GPR139-CHOk1 cell line; format: cell-based; conditions: Agonist mode; individual replicates (Supplementary Figure 1)
Method: Primary screening and pharmacological characterization of compounds were performed using a CHO-K1 cell line that stably expresses human GPR139 (GPR139-CHOk1). The GPR139-CHOk1 cell line was kindly provided by H. Lundbeck A/S, Denmark[24]. GPR139-CHOk1 cells were grown in Ham’s F-12 Kaighn’s Modification Medium (ThermoFisher #21127030) supplemented with 10% dialyzed fetal bovine serum (US origin, ThermoFisher #26400044), 100 units/mL Penicillin-Streptomycin (ThermoFisher #15140122), and 1 mg/mL Geneticin (ThermoFisher #11811031). […] M1R-CHOk1 cells were purchased from The Missouri S&T cDNA Resource Center (#CEM100TN00). M1R-CHOk1 cells were grown in Ham’s F12 Medium (ThermoFisher #21765029) supplemented with 10% fetal bovine serum (Brazilian origin, ThermoFisher #10270106), 100 units/mL Penicillin-Streptomycin, and 0.25 mg/mL Geneticin. HEK293A cells transiently transfected with GPR139 were used for additional pharmacological assessment of signaling pathways activated by GPR139. HEK239A cells were generously provided by Dr. Asuka Inoue, Tohoku University, Japan. HEK293A cells were grown in Dulbecco’s Modified Eagle Medium (ThermoFisher #31966047) supplemented with 10% dialyzed fetal bovine serum and 100 units/mL Penicillin-Streptomycin. Cell lines were maintained at 37 °C in humidified incubator equilibrated with 5% CO2.
as §1
Our primary compound screening protocol consisted of two subsequent steps that allowed to screen for agonists and antagonists simultaneously. In the first step, the screening compounds were applied at 10 µM to test for agonist activity (agonist mode). Following 20 min incubation with the compounds added in the first step, in the second step, an EC80 concentration (800 nM) of the reference agonist Lundbeck Cmp 1a was applied to test for antagonist activity (antagonist mode).
Pharmacological data and statistical analyses were performed in GraphPad Prism v9–10 (Graphpad Software Inc., San Diego, CA), which are also specifically described in the figure and table legends. The functional assay responses were normalized to buffer (0%) and Lundbeck Cmp 1a or JNJ-63533054 (100%), for Ca^2+ and IP1 experiments in the GPR139-CHOk1 stable cell line or Ca^2+, G protein activation, and arrestin-3 recruitment experiments in the HEK293A cells transiently transfected with GPR139, respectively. Data are from at least three independent experiments, unless stated otherwise. Concentration-response curves were fitted applying non-linear regression using the log (agonist) versus response model with variable slope. ANOVA was applied for comparing results and determining statistical significance.

SMILES	Ca2+ signal (% of Cmp 1a) (GPR139 [1])	Ca2+ signal (% of Cmp 1a) (GPR139 [2])
Cc1nnsc1C(=O)N1CCCC1c1nc2cc(Cl)ccc2[nH]1 (centres unmarked) [Compound 38, CC=1N=NSC1C(=O)N2CCCC2C3=NC=4C=C(Cl)C=CC4N3]	85.3922 % of Cmp 1a and 96.4303 % of Cmp 1a and 86.2753 % of Cmp 1a	1.3 % of Cmp 1a and 1.18 % of Cmp 1a and -5.34 % of Cmp 1a
Cn1c(SCC(=O)Nc2c(F)cccc2F)nc2ccccc21 [Compound 30, CN1C(SCC(=O)NC=2C(F)=CC=CC2F)=NC=3C=CC=CC13]	67.1888 % of Cmp 1a and 62.1843 % of Cmp 1a and 60.1781 % of Cmp 1a	-6.62 % of Cmp 1a and 1.6 % of Cmp 1a and 14 % of Cmp 1a
O=C(Nc1ccnc(OCc2ccccc2)c1)C1Cc2ccccc21 (centres unmarked) [Compound 43, O=C(NC=1C=CN=C(OCC=2C=CC=CC2)C1)C3CC=4C=CC=CC34]	90.3553 % of Cmp 1a and 81.3074 % of Cmp 1a and 78.6074 % of Cmp 1a	0.84 % of Cmp 1a and 9 % of Cmp 1a and 13 % of Cmp 1a
CCc1ocnc1C(=O)Nc1cccc(C(=O)NCc2ccccc2)c1 [Compound 29, CCC=1OC=NC1C(=O)NC=2C=CC=C(C2)C(=O)NCC=3C=CC=CC3]	59.2373 % of Cmp 1a and 59.0417 % of Cmp 1a and 94.2662 % of Cmp 1a	-4.43 % of Cmp 1a and 1.9 % of Cmp 1a and 8 % of Cmp 1a
CC(C)(NC(=O)Nc1ccccc1)C(=O)Nc1cnc2ccccc2c1 [Compound 20, CC(C)(NC(=O)NC=1C=CC=CC1)C(=O)NC=2C=NC=3C=CC=CC3C2]	73.2682 % of Cmp 1a and 77.4411 % of Cmp 1a and 81.0233 % of Cmp 1a	2.84 % of Cmp 1a and -2.82 % of Cmp 1a and 13 % of Cmp 1a
Cc1ccc(-n2cc(NC(=O)NCc3cccs3)cn2)c(C)c1 [Compound 37, CC=1C=CC(=C(C)C1)N2C=C(NC(=O)NCC3=CC=CS3)C=N2]	89.9792 % of Cmp 1a and 76.2749 % of Cmp 1a and 86.0947 % of Cmp 1a	-6 % of Cmp 1a and 12 % of Cmp 1a and 7 % of Cmp 1a
CCn1c(Nc2ccn(C)n2)nnc1-c1n[nH]c(=O)c2ccccc12 [Compound 45, CCN1C(NC=2C=CN(C)N2)=NN=C1C3=NNC(=O)C=4C=CC=CC34]	78.1245 % of Cmp 1a and 83.0928 % of Cmp 1a and 73.9872 % of Cmp 1a	0.117 % of Cmp 1a and 7 % of Cmp 1a and 8 % of Cmp 1a
Cc1cccc(-c2nc(C(=O)N3CCc4ncccc43)c(C)[nH]2)c1 [Compound 27, CC=1NC(=NC1C(=O)N2CCC=3N=CC=CC23)C=4C=CC=C(C)C4]	81.7236 % of Cmp 1a and 71.1235 % of Cmp 1a and 80.4014 % of Cmp 1a	-4.28 % of Cmp 1a and 11 % of Cmp 1a and 2.44 % of Cmp 1a
O=C(NCc1ccc(Cl)s1)c1ccnc(-n2cncn2)c1 [Compound 64, ClC1=CC=C(CNC(=O)C=2C=CN=C(C2)N3C=NC=N3)S1]	87.3464 % of Cmp 1a and 90.999 % of Cmp 1a and 82.6211 % of Cmp 1a	-4 % of Cmp 1a and -5 % of Cmp 1a and -0.942 % of Cmp 1a
Cc1ccc(NC(=O)C2Cc3ccccc32)cc1C(=O)N(C)C(C)C (centres unmarked) [Compound 41, CC(C)N(C)C(=O)C=1C=C(NC(=O)C2CC=3C=CC=CC23)C=CC1C]	75.8841 % of Cmp 1a and 100.088 % of Cmp 1a and 66.5963 % of Cmp 1a	0.898 % of Cmp 1a and -4.45 % of Cmp 1a and -1.11 % of Cmp 1a
